In patent US20060167083A1, “Therapeutic methods and compositions involving isoflav-3-ene and isoflavan structures” (priority 2002, published 2006):

Legend:
Assay type in all cases: biochemical
human topo I [1] = target: T1, human topo I (Homo sapiens, UniProt P11387); experiment: Topo I-mediated plasmid-nicking assay; conditions: 10 and 100 μg/ml (FIG. 4 lanes 5 and 6)
T1 construct: purchased Topogen (Columbus, Ohio)
T1 sequence (P11387 1-765): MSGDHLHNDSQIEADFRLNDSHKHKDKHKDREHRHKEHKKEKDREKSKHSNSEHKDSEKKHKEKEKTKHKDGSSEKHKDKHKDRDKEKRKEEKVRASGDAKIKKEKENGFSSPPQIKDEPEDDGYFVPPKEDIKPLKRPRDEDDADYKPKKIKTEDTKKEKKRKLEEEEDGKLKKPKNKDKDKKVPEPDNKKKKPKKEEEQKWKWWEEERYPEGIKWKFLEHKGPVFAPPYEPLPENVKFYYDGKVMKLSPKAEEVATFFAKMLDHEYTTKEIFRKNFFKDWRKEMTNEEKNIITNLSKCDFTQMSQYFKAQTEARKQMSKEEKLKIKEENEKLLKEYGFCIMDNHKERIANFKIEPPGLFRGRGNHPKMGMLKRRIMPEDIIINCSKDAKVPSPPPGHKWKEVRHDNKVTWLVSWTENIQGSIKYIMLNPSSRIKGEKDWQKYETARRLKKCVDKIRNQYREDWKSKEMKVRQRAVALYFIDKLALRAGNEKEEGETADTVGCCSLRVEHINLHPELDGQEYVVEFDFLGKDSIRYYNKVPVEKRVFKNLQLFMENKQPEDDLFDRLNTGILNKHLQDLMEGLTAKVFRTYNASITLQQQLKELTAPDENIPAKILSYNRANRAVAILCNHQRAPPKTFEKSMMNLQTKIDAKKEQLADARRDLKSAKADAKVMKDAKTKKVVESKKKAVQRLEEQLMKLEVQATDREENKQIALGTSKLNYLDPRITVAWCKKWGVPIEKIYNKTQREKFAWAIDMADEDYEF
Procedure: Single-strand DNA breakage was determined by converting relaxed (REL) or supercoiled (SC) pUC8 DNA to the nicked form (NIC).
Under the electrophoretic conditions that were used in the experiment shown in FIG. 4, covalently closed circular (supercoiled or relaxed) plasmid DNA migrates on the bottom of the gel. In the presence of a topo I poison that stabilises the cleavable complex, and following denaturation and degradation of the enzyme with proteinase K/SDS, the resulting nicked DNA migrates on the top of the gel.
Topo I poisons enhance topo I-mediated pUC8 DNA cleavage under the reaction conditions provided by the supplier of the enzyme (Topogen, Inc.). Briefly, 20 μl of reaction mixtures contained 10 mM Tris-HCl, pH 7.5, 1 mM EDTA, 100 mM NaCl, 1 μl of the test agent (or solvent), 0.5 μg of pUC8, and 10 units of human topo I (added last). After a 30-min incubation at 37° C., SDS-proteinase K was added, and, following a 30-min incubation at 37° C., samples were extracted with CHCl3-isopropanol and electrophoresed on a 1% agarose gel containing 0.5 μg/ml ethidium bromide. Gels were photographed, and photographic negatives were scanned.

human topo I [2] = target: T1, human topo I; experiment: Topo I-mediated plasmid relaxation assay; conditions: 10 μg/ml
Procedure: Topo I activity was determined by converting supercoiled pUC8 DNA (SC) into its relaxed from (REL).
For the determination of topoisomerase (topo) I catalytic activity, pUC8 DNA was used as the substrate in a reaction volume of 20 μl containing the following: 10 mM Tris-HCl, pH 7.9, 1 mM EDTA, 150 mM NaCl, 0.1% BSA, 0.1 mM spermidine, 5% glycerol, and 2 units of purified human topo I. The inhibitor, when applicable, was added as indicated, and the reaction was initiated by the addition of the enzyme. Reactions were carried out at 37° C. for 30 min. Gel electrophoresis was performed at 4 V/cm for 5 h in Tris-borate-EDTA buffer. For the quantitative determination of topo I activity, photographic negatives were scanned. The area representing supercoiled DNA, migrating as a single band at the bottom of the gel, was determined. The concentrations of the inhibitor that prevented 50% of the supercoiled DNA from being converted into relaxed DNA (IC50 values) were determined by averaging the data from at least three experiments.

human topo II = target: T2, human topo II (Homo sapiens, UniProt P11388); experiment: Topo II-mediated plasmid linearisation assay
T2 construct: purchased Topogen (Columbus, Ohio)
Procedure: FIG. 3 represents an assay for determining the effect of dehydroequol on double-stranded DNA cleavage. pRYG DNA was incubated with ten units of human topo II (lanes 2-6) in the absence (lane 1) or presence of 10, 30, or 100 μg/ml dehydroequol (lanes 2-4), or 30 μg/ml genistein (lane 5), or 10 μg/ml VP-16 (lane 6). Lane 7, linear pUC8 DNA marker. Double-strand DNA breakage was determined by converting relaxed (REL) or supercoiled (SC) pRYG DNA to the linear (LIN) form.
A linearisation assay was employed to determine if dehydroequol is a topo II poison. Double-strand breakage results in the appearance of linear DNA. […] This effect, which was evident at 10 μg/ml, peaked at 30 μg/ml.
Topo II poisons enhance topo II-mediated DNA cleavage and can be identified with the linearisation assay under the reaction conditions provided by the supplier of the enzyme (Topogen, Inc.). Briefly, 20-μl reaction mixtures contained 30 mM Tris-HCl, pH 7.6, 3 mM ATP, 15 mM β-mercaptoethanol, 8 mM MgCl2, 60 mM NaCl, 1 μl of the test agent (or solvent), 0.3 μg of pRYG, and 10 units of human topo II (added last). After a 15-min incubation at 37° C., SDS-proteinase K was added, and following a 15 min incubation at 37° C., samples were extracted with CHCl3-isopropanol and electrophoresis was performed on a 1% agarose gel containing ethidium bromide. Gels were photographed, and photographic negatives were scanned.

T2 sequence (P11388 whole entry): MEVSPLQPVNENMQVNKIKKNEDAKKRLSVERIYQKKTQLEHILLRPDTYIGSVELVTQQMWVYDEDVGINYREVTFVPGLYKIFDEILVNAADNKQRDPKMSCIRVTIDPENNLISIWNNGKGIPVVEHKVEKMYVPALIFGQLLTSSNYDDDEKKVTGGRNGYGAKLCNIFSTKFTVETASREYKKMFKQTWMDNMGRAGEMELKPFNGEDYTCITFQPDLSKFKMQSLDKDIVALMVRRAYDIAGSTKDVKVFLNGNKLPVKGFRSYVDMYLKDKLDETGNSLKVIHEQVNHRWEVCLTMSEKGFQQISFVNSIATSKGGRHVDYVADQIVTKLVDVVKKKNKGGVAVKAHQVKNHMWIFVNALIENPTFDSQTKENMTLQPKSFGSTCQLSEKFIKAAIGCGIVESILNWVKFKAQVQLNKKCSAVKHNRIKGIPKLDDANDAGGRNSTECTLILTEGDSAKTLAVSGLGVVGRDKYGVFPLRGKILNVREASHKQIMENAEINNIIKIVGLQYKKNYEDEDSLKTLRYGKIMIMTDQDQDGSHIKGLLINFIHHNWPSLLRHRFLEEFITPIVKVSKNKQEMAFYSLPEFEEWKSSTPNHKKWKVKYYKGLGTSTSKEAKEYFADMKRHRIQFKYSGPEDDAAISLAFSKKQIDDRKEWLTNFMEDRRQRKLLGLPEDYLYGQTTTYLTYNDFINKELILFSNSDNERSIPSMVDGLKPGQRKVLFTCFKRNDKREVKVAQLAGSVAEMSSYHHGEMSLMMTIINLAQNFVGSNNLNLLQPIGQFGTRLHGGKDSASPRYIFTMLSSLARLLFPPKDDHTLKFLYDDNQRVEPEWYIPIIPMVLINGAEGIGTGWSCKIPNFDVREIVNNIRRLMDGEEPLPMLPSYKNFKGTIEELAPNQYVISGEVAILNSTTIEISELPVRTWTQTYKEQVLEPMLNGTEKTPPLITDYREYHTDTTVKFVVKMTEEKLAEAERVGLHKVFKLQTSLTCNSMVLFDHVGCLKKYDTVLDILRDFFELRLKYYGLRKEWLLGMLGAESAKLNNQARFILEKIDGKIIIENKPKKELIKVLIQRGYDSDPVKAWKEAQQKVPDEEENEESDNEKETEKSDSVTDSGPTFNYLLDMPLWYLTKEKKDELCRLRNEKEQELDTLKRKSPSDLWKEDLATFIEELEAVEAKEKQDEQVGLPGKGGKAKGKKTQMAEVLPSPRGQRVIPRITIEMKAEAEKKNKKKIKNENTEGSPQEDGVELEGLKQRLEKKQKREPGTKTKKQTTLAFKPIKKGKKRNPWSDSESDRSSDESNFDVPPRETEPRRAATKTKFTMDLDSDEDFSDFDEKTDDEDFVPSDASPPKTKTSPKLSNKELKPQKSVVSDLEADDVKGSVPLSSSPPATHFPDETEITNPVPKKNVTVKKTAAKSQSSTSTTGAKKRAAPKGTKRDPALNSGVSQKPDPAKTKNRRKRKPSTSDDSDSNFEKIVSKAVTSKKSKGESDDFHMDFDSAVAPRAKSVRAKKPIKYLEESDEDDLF

Row | concentration producing detectable (comparable) topo II-mediated linear plasmid DNA (human topo II) [µg/mL] | Compound | topo I-mediated single-strand DNA breakage (nicked DNA), positive control (human topo I [1]) | inhibition of topo I-catalysed relaxation of pUC8 DNA (positive control) (human topo I [2])
1 |  | CC[C@@]1(O)C(=O)OCc2c1cc1n(c2=O)Cc2cc3ccccc3nc2-1 [Camptothecin, reference compound] | produced single-strand DNA cleavage | prevents pUC8 DNA relaxation
2 | 30 | O=c1c(-c2ccc(O)cc2)coc2cc(O)cc(O)c12 [genistein, reference compound] |  | 
